Where a name gives a salt, the structure may show the parent alone.

One test deals with Candida albicans (IFO 0538). The test is described as follows: Antifungal activity against Candida albicans, paper disc growth inhibition zone (Tables 5 and 6). It is filed as cell-based. The settings on record: 48 h, A medium (yeast nitrogen base agar), 28° C., 2 days incubation; read-out: Inhibition zone diameter. Here is the method:
The antifungal activities of the compounds (I) were evaluated by the following method: a sheet of filter paper disc (manufactured by Toyo Seisakusho, 8 mm in diameter) soaked in a 1000 μg/ml solution of a compound (I) in methanol was placed on an agar plate, which was incubated at 28° C. for 2 days, and the diameter of the growth inhibition zone around the filter paper disc was measured. The following culture media were used:
A: yeast nitrogen base agar medium
B: yeast nitrogen base agar medium (pH 7.0)
For `O=S(=O)(CCn1cncn1)CC(O)(Cn1cncn1)c1ccc(F)cc1F` (centres unmarked) [Compound 3], the zone of inhibition at 1000 µg/mL was determined as 13 mm. Regarding `CC(SCC(O)(Cn1cncn1)c1ccc(F)cc1F)c1ccncc1` (centres unmarked) [Compound 9], the zone of inhibition at 1000 µg/mL was found to be 21 mm.

`C[C@@H](SCCn1cncn1)[C@](O)(Cn1cncn1)c1ccc(F)cc1F` (relative stereo) [Compound 13]: the zone of inhibition at 1000 µg/mL turned out to be 34 mm.

Take `C[C@H]([C@](O)(Cn1cncn1)c1ccc(F)cc1F)S(=O)(=O)CCn1cncn1` (relative stereo) [Compound 14]: the zone of inhibition at 1000 µg/mL came out at 22 mm. The same measure, in the same setting: with `OC(CSCCc1ccncc1)(Cn1cncn1)c1ccc(F)cc1F` (centres unmarked) [Compound 8] the figure was 25 mm.

In the case of `OC(CSCCSCCn1ccnc1)(Cn1cncn1)c1ccc(F)cc1F` (centres unmarked) [Compound 7], the zone of inhibition at 1000 µg/mL turned out to be 18 mm.

The same test, now with this note: 48 h, pH 7, B medium (yeast nitrogen base agar, pH 7.0), 28° C., 2 days incubation; read-out: Inhibition zone diameter.
Take `OC(CSCCSCCn1cncn1)(Cn1cncn1)c1ccc(F)cc1F` (centres unmarked) [Compound 21]: the zone of inhibition at 1000 µg/mL amounted to 20 mm. In the case of `C[C@@H](SCc1nccn1C1CC1)[C@](O)(Cn1cncn1)c1ccc(F)cc1F` [Compound 110], the zone of inhibition at 1000 µg/mL turned out to be 40 mm.

Consider `CC(=O)S[C@H](C)[C@](O)(Cn1cncn1)c1ccc(F)cc1F` [Compound 45, (2R,3R)-3-acetylthio-2-(2,4-difluorophenyl)-1-(1H-1,2,4-triazol-1-yl)-2-butanol], for which the zone of inhibition at 1000 µg/mL turned out to be 40 mm.

For the molecule `C[C@H](S)[C@](O)(Cn1cncn1)c1ccc(F)cc1F` (racemic) [Compound 60, (2RS,3SR)-2-(2,4-difluorophenyl)-3-mercapto-1-(1H-1,2,4-triazol-1-yl)-2-butanol], the zone of inhibition at 1000 µg/mL was determined as 30 mm. Turning to `CSc1nnc(CS[C@H](C)[C@](O)(Cn2cncn2)c2ccc(F)cc2F)n1C` (relative stereo) [Compound 34], the zone of inhibition at 1000 µg/mL was 30 mm. On to `C[C@@H](SCCSCCn1ccnc1)[C@](O)(Cn1cncn1)c1ccc(F)cc1F` (relative stereo) [Compound 23], for which the zone of inhibition at 1000 µg/mL is 25 mm. Take `C[C@@H](SCc1nccn1C1CC1)[C@](O)(Cn1cncn1)c1ccc(F)cc1F` (relative stereo) [Compound 55]: the zone of inhibition at 1000 µg/mL was 30 mm.

For the molecule `Cc1oc(=O)oc1CS[C@H](C)[C@](O)(Cn1cncn1)c1ccc(F)cc1F` [Compound 111], the zone of inhibition at 1000 µg/mL came to 35 mm. As to `C[C@@H](SCc1cn(C)cn1)[C@](O)(Cn1cncn1)c1ccc(F)cc1F` (relative stereo) [Compound 28], the zone of inhibition at 1000 µg/mL came to 40 mm. For the molecule `Cc1ncc(CS[C@H](C)[C@](O)(Cn2cncn2)c2ccc(F)cc2F)s1` (relative stereo) [Compound 53], the zone of inhibition at 1000 µg/mL amounted to 35 mm. As for `C[C@@H](SCc1cn2ccccc2n1)[C@](O)(Cn1cncn1)c1ccc(F)cc1F` (relative stereo) [Compound 27], the zone of inhibition at 1000 µg/mL was 45 mm. Consider `C[C@@H](SCc1nncn1C)[C@](O)(Cn1cncn1)c1ccc(F)cc1F` (relative stereo) [Compound 33], for which the zone of inhibition at 1000 µg/mL was found to be 20 mm. With `Cc1nc(CS[C@H](C)[C@](O)(Cn2cncn2)c2ccc(F)cc2F)cs1` (relative stereo) [Compound 52], the zone of inhibition at 1000 µg/mL came to 35 mm.

Regarding `Cc1nnc(S[C@H](C)[C@](O)(Cn2cncn2)c2ccc(F)cc2F)s1` (relative stereo) [Compound 26], the zone of inhibition at 1000 µg/mL is 45 mm. Regarding `C[C@@H](SCc1nccn1C(CF)CF)[C@](O)(Cn1cncn1)c1ccc(F)cc1F` (relative stereo) [Compound 59], the zone of inhibition at 1000 µg/mL came to 30 mm. `CCn1ccnc1CS[C@H](C)[C@](O)(Cn1cncn1)c1ccc(F)cc1F` [Compound 101]: the zone of inhibition at 1000 µg/mL worked out at 38 mm.

Turning to `C[C@@H](SCc1nncn1C)[C@](O)(Cn1cncn1)c1ccc(F)cc1F` [Compound 95], the zone of inhibition at 1000 µg/mL was 28 mm. With `CC(C)C(=O)S[C@H](C)[C@](O)(Cn1cncn1)c1ccc(F)cc1F` [Compound 62, (2R,3R)-2-(2,4-difluorophenyl)-3-isobutyrylthio-1-(1H-1,2,4-triazol-1-yl)-2-butanol], the zone of inhibition at 1000 µg/mL was 45 mm. Same read-out and setting: with `OC(CSCCSCc1ccncc1)(Cn1cncn1)c1ccc(F)cc1F` (centres unmarked) [Compound 19] the figure was 30 mm; with `CC(C)n1ccnc1CS[C@H](C)[C@](O)(Cn1cncn1)c1ccc(F)cc1F` [Compound 102], 35 mm; with `OC(CSCCSc1ccncc1)(Cn1cncn1)c1ccc(F)cc1F` (centres unmarked) [Compound 24], 25 mm. The same measure, in the same setting: with `Cn1nnnc1SCCSCC(O)(Cn1cncn1)c1ccc(F)cc1F` (centres unmarked) [Compound 20] the figure was 25 mm; with `Cn1ccnc1CSCCSCC(O)(Cn1cncn1)c1ccc(F)cc1F` (centres unmarked) [Compound 17], 25 mm. On the same count and under the same terms, as for `Cn1ccnc1SCCSCC(O)(Cn1cncn1)c1ccc(F)cc1F` (centres unmarked) [Compound 18], the figure is 25 mm; as for `CC(=O)S[C@@H](C)[C@](O)(Cn1cncn1)c1ccc(F)cc1F` (relative stereo) [Compound 61], 30 mm; as for `C[C@@H](SCCSCCn1cncn1)[C@](O)(Cn1cncn1)c1ccc(F)cc1F` (relative stereo) [Compound 22], 25 mm.

For `C[C@@H](SCc1nccn1CC(F)(F)C(F)F)[C@](O)(Cn1cncn1)c1ccc(F)cc1F` (relative stereo) [Compound 30], the zone of inhibition at 1000 µg/mL was determined as 40 mm. The same measure, in the same setting: as for `C[C@@H](SCc1nccs1)[C@](O)(Cn1cncn1)c1ccc(F)cc1F` (relative stereo) [Compound 38], the figure is 47 mm.

Still in this test, the particulars now being: A medium (yeast nitrogen base agar), 28° C., 2 days incubation.
The molecule `CC(SCC(O)(Cn1cncn1)c1ccc(F)cc1F)c1ccncc1` (centres unmarked) [Compound 10] showed an Inhibition zone diameter of 21 mm. For `CC(SCC(O)(Cn1cncn1)c1ccc(F)cc1F)c1ccncc1` (centres unmarked) [Compound 11], the Inhibition zone diameter was determined as 24 mm.

The test system of a further test is Candida albicans. The test is described as follows: Infection-preventing effect in experimental infection in mice, Method 1 (Table 7-1). The settings on record: Candida albicans, po, 168 h, p.o., given 0 and 2 hours after infection; survival 7 days after infection; total dose; read-out: ED50. It is filed as in vivo, Crj:CDF1 mice. As to the method: Method 1 (Table 7-1): To 5-week-old Crj:CDF1 mice the minimum lethal dose of Candida albicans was inoculated intravenously. The test drug was given twice 0 and 2 hours after infection. The effectiveness of the drug was expressed in ED50 values calculated by the Reed and Muench method from the survival rate 7 days after infection. The ED50 values were calculated based on the total dose given on the two occasions.
Turning to `C[C@@H](SCc1nccn1C1CC1)[C@](O)(Cn1cncn1)c1ccc(F)cc1F` [Compound 110], the ED50 (as a rule, the dose that gives a 50% effect, or the effect in half of the subjects) was determined as 0.35 mg/kg. Turning to `CC(=O)S[C@H](C)[C@](O)(Cn1cncn1)c1ccc(F)cc1F` [Compound 45, (2R,3R)-3-acetylthio-2-(2,4-difluorophenyl)-1-(1H-1,2,4-triazol-1-yl)-2-butanol], the ED50 was found to be 0.18 mg/kg. Still for that read-out and setting: as for `Cc1oc(=O)oc1CS[C@H](C)[C@](O)(Cn1cncn1)c1ccc(F)cc1F` [Compound 111], the figure is 0.89 mg/kg. Still for that read-out and setting: with `CC(C)C(=O)S[C@H](C)[C@](O)(Cn1cncn1)c1ccc(F)cc1F` [Compound 62, (2R,3R)-2-(2,4-difluorophenyl)-3-isobutyrylthio-1-(1H-1,2,4-triazol-1-yl)-2-butanol] the figure was 0.35 mg/kg. `C[C@@H](SCc1nccn1C)[C@](O)(Cn1cncn1)c1ccc(F)cc1F` (relative stereo) [16(hydrochloride)]: the ED50 worked out at 0.71 mg/kg.

Still in this test, the particulars now being: Candida albicans, sc, 168 h, s.c., given 0 and 2 hours after infection; survival 7 days after infection; total dose; read-out: ED50.
As to `O=S(=O)(CCn1cncn1)CC(O)(Cn1cncn1)c1ccc(F)cc1F` (centres unmarked) [Compound 3], the median effective dose (ED50) is 32.4 mg/kg. Take `C[C@@H](SCc1nccs1)[C@](O)(Cn1cncn1)c1ccc(F)cc1F` (relative stereo) [38(hydrochloride)]: the ED50 turned out to be 3.2 mg/kg. `C[C@@H](SCc1nccn1C1CC1)[C@](O)(Cn1cncn1)c1ccc(F)cc1F` [Compound 110]: the ED50 is 0.35 mg/kg. In the case of `CC(=O)S[C@H](C)[C@](O)(Cn1cncn1)c1ccc(F)cc1F` [Compound 45, (2R,3R)-3-acetylthio-2-(2,4-difluorophenyl)-1-(1H-1,2,4-triazol-1-yl)-2-butanol], the ED50 was 0.16 mg/kg. As for `C[C@H](S)[C@](O)(Cn1cncn1)c1ccc(F)cc1F` (racemic) [Compound 60, (2RS,3SR)-2-(2,4-difluorophenyl)-3-mercapto-1-(1H-1,2,4-triazol-1-yl)-2-butanol], the ED50 is > 4 mg/kg.

`CSc1nnc(CS[C@H](C)[C@](O)(Cn2cncn2)c2ccc(F)cc2F)n1C` (relative stereo) [Compound 34]: the ED50 came to 3.2 mg/kg. Regarding `C[C@@H](SCc1nccn1C1CC1)[C@](O)(Cn1cncn1)c1ccc(F)cc1F` (relative stereo) [Compound 55], the median effective dose (ED50) worked out at 0.5 mg/kg. On the same count and under the same terms, with `Cc1oc(=O)oc1CS[C@H](C)[C@](O)(Cn1cncn1)c1ccc(F)cc1F` [Compound 111] the figure was 0.71 mg/kg; with `C[C@@H](SCc1cn(C)cn1)[C@](O)(Cn1cncn1)c1ccc(F)cc1F` (relative stereo) [Compound 28], 0.65 mg/kg. As for `Cc1ncc(CS[C@H](C)[C@](O)(Cn2cncn2)c2ccc(F)cc2F)s1` (relative stereo) [Compound 53], the ED50 amounted to 2 mg/kg. As for `C[C@@H](SCc1nncn1C)[C@](O)(Cn1cncn1)c1ccc(F)cc1F` (relative stereo) [Compound 33], the ED50 stood at 0.45 mg/kg. For `Cc1nc(CS[C@H](C)[C@](O)(Cn2cncn2)c2ccc(F)cc2F)cs1` (relative stereo) [Compound 52], the ED50 came out at 2 mg/kg. For `CC(SCC(O)(Cn1cncn1)c1ccc(F)cc1F)c1ccncc1` (centres unmarked) [Compound 10], the ED50 came to 35.4 mg/kg.

With `Cc1nnc(S[C@H](C)[C@](O)(Cn2cncn2)c2ccc(F)cc2F)s1` (relative stereo) [Compound 26], the ED50 came out at 3.2 mg/kg. Turning to `C[C@@H](SCc1nccn1C(CF)CF)[C@](O)(Cn1cncn1)c1ccc(F)cc1F` (relative stereo) [Compound 59], the ED50 was 1.4 mg/kg.

Turning to `CC(C)C(=O)S[C@H](C)[C@](O)(Cn1cncn1)c1ccc(F)cc1F` [Compound 62, (2R,3R)-2-(2,4-difluorophenyl)-3-isobutyrylthio-1-(1H-1,2,4-triazol-1-yl)-2-butanol], the ED50 worked out at 0.5 mg/kg. Same read-out and setting: as for `C[C@@H](SCc1nccn1CC(F)(F)C(F)F)[C@](O)(Cn1cncn1)c1ccc(F)cc1F` (relative stereo) [30(hydrochloride)], the figure is 0.88 mg/kg. As to `C[C@@H](SCc1cn2ccccc2n1)[C@](O)(Cn1cncn1)c1ccc(F)cc1F` (relative stereo) [27(hydrochloride)], the ED50 came out at 3.2 mg/kg.

(Values after patent US5405861A, “Triazole compounds and antifungal compositions thereof” (Takeda Chemical Industries, Co., Ltd., priority 1989, dated 1995).)
